Source: US20260176260A1, “DUAL RAF AND TUBULIN INHIBITORS AND METHODS OF USE THEREOF” (Deciphera Pharmaceuticals, LLC, priority 2023, published 2026)
Like-named read-outs stand apart in the source and are kept apart here.

Experiments:
C-Raf kinase = biological target: T1, C-Raf kinase (Homo sapiens, UniProt P04049, Y340D/Y341D); experiment: Biochemical assay for C-Raf (coupled pyruvate kinase/lactate dehydrogenase)
T1 construct: C-Raf residues 306-end; Y340D, Y341D with N-; purchased Sigma

B-Raf kinase = biological target: T2, B-Raf kinase (Homo sapiens, UniProt P15056); experiment: Biochemical assay for B-Raf (coupled pyruvate kinase/lactate dehydrogenase)
T2 construct: purchased Sigma
T2 sequence (P15056 416-766): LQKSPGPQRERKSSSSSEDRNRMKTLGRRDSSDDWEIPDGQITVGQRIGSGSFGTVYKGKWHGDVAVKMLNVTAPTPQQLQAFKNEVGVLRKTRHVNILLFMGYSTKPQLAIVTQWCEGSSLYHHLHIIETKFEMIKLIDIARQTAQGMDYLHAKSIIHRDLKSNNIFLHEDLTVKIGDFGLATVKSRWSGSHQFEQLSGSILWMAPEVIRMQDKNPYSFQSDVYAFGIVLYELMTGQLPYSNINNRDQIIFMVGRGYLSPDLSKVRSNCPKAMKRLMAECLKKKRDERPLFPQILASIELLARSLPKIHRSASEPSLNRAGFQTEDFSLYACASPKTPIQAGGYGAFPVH

MiaPaca-2 cells = experiment: MiaPaca-2 cell proliferation assay (resazurin); assay type: cell-based; details: Homo sapiens, MIA PaCa-2; Table 2, inhibition of cell proliferation; read-out: MiaPaca-2
Experimental: MiaPaca-2 cells (catalog #CRL-1420) are obtained from the American Type Culture Collect (ATTC, Manassas, VA). Briefly, cells were grown in DMVEM supplemented with […] fetal bovine serum (Invitrogen, Carlsbad, CA), 2.5% New Zealand sourced horse serum and 1% Penicillin/Streptomycin/L-Glutamine at 37° C., […], and […]. Cells are expanded until reaching […] at which point they are sub-cultured or harvested for assay use. For assays completed in 96-well plates, a serial dilution of test compound is dispensed into a 96-well black clear bottom plate in triplicate. Three thousand cells are added per well in 200 μL complete growth medium in the 96-well plate. Plates are incubated for 67 to 72 h at 37° C., 5% CO2, and 95% humidity. At the end of the incubation, 40 μL of a […] solution of resazurin (Sigma, St. Louis, MO) in PBS is added to each well of the plate and plates are incubated for an additional 5 to 6 h at 37° C., 5% CO2, and 95% humidity. For 384-well assays, a threefold, 8-point serial dilution of compound was spotted column wise into a 384 well black, clear bottom, tissue culture treated plate using the Beckman Coulter Echo 650. Likewise, a threefold, 8-point serial dilution of cobimetinib was spotted row wise into the 384 well black, clear bottom plate containing compound. DMSO concentration was constant across all wells at 0.4%. Seven hundred fifty cells are added per well in 50 μL complete growth medium in each 384-well plate. Plates are incubated for 67 to 72 h at 37° C., 5% CO2, and 95% humidity. At the end of the incubation, 10 μL of a 440 μM solution of resazurin (Sigma, St. Louis, MO) in PBS is added to each well of the plate and plates are incubated for an additional 4 to 6 h at 37° C., 5% CO2, and 95% humidity. Plates are read on a Synergy2 or equivalent reader (Biotek, Winooski VT) using an excitation of 540 nm and an emission of 600 nm. Data is analyzed using Prism software (Graphpad, San Diego, CA) to calculate IC50 values.

HPAF-II cells = experiment: HPAF-II cell proliferation assay (resazurin); assay type: cell-based; details: Homo sapiens
Experimental: (§1) HPAF-II cells (catalog #CRL-1997) are obtained from the American Type Culture Collect (ATCC, Manassas, VA). Briefly, cells are grown in Minimum Essential Media supplemented with 10% characterized fetal bovine serum (Invitrogen, Carlsbad, CA) and 1% Penicillin/Streptomycin/L-Glutamine at 37° C., 5% CO2, and 95% humidity. Cells are expanded until reaching 70-95% confluency at which point they are sub-cultured or harvested for assay use. A serial dilution of test compound is dispensed into a 384-well black clear bottom plate in triplicate. 750 cells are added per well in 50 μL complete growth medium in the 384-well plate. Plates are incubated for 115 to 120 h at 37° C., 5% CO2, and 95% humidity. At the end of the incubation, 40 μL of a […] solution of resazurin (Sigma, St. Louis, MO) in PBS is added to each well of the plate and plates are incubated for an additional 18 to 24 h at 37° C., 5% CO2, and 95% humidity. Plates are read on a Synergy2 or equivalent reader (Biotek, Winooski, VT) using an excitation of 540 nm and an emission of 600 nm. Data is analyzed using Prism software (Graphpad, San Diego, CA) to calculate IC50 values.

Pa16c cells = experiment: Pa16c cell proliferation assay (resazurin); assay type: cell-based; details: Table 2, inhibition of cell proliferation
Experimental: as §1, with “Pa16c” for “HPAF-II”, “cells” for “cells (catalog #CRL-1997)”, “Dr. Channing Der, University of North Carolina at Chapel Hill.” for “the American Type Culture Collect (ATCC, Manassas, VA).”, “Dulbecco's Modified Eagle Medium” for “Minimum Essential Media”, “67” for “115”, “72” for “120”

HCT-116 cells = experiment: HCT-116 cell proliferation assay (resazurin); assay type: cell-based; details: Homo sapiens
Experimental: HCT-116 cells (catalog #CCL-247) are obtained from the American Type Culture Collect (ATCC, Manassas, VA). Briefly, cells are grown in McCoy's 5A supplemented with 10% characterized fetal bovine serum (Invitrogen, Carlsbad, CA) and 1% Penicillin/Streptomycin/L-Glutamine at 37° C., 5% CO2, and 95% humidity. Cells are expanded until reaching 70-95% confluency at which point they are sub-cultured or harvested for assay use. A serial dilution of test compound is dispensed into a 384-well black clear bottom plate in triplicate. 375 cells are added per well in 50 μL complete growth medium in the 384-well plate. Plates are incubated for 67 to 72 h at 37° C., 5% CO2, and 95% humidity. At the end of the incubation, 40 μL of a […] solution of resazurin (Sigma, St. Louis, MO) in PBS is added to each well of the plate and plates are incubated for an additional 4 to 5 h at 37° C., 5% CO2, and 95% humidity. Plates are read on a Synergy2 or equivalent reader (Biotek, Winooski, VT) using an excitation of 540 nm and an emission of 600 nm. Data is analyzed using Prism software (Graphpad, San Diego, CA) to calculate IC50 values.

[1] = Table 1, inhibition of biochemical activity, read-out: CRAF
[2] = Table 1, inhibition of biochemical activity, read-out: BRAF
[3] = Table 2, inhibition of cell proliferation, read-out: HPAF-II
[4] = Table 2, inhibition of cell proliferation, read-out: HCT-116

T1 sequence (P04049 307-648 Y340D/Y341D): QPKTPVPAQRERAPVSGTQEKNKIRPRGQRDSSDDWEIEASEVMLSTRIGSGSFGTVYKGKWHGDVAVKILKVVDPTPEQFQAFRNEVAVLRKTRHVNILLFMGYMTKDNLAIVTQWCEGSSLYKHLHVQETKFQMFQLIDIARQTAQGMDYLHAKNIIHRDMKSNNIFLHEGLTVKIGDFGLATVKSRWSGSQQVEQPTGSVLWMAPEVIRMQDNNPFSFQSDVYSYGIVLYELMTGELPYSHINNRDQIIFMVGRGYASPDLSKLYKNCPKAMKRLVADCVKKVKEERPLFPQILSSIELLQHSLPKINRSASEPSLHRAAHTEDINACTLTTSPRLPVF

| SMILES | IC50 (C-Raf kinase; [1]) | IC50 (B-Raf kinase; [2]) | IC50 (MiaPaca-2 cells) | IC50 (HPAF-II cells; [3]) | IC50 (Pa16c cells) | IC50 (HCT-116 cells; [4]) | IC50 (HPAF-II cells; HPAF-II, Table 4, read-out: HPAF-II IC50) | IC50 (C-Raf kinase; Table 4, read-out: CRAF IC50) | IC50 (B-Raf kinase; Table 4, read-out: BRAF IC50) | IC50 (HCT-116 cells; HCT-116, Table 4, read-out: HCT-116 IC50) |
| --- | --- | --- | --- | --- | --- | --- | --- | --- | --- | --- |
| Cc1ccc(NC(=O)c2ccc(C(F)(F)F)nc2)cc1-c1cncc(-c2ccnc(C(N)=O)c2)c1 [Example 11] | 0.1 to 0.5 µM | 0.5 to 1 µM | 1 to 10 µM | – | – | – | – | – | – | – |
| CNC(=O)c1cc(-c2cc(-c3cc(NC(=N)c4cc(C5CC5)cnn4)ccc3C)ccn2)ccn1 [Example 21] | 0.1 to 0.5 µM | 0.5 to 1 µM | 1 to 10 µM | 1 to 10 µM | 1 to 10 µM | 1 to 10 µM | – | – | – | – |
| CNC(=O)c1cc(-c2cc(-c3cc(NC(=O)c4ccc(C(F)(F)F)nc4)ccc3C)cc(N[C@H](C)CO)n2)ccn1 [Example 44] | 0.1 to 0.5 µM | 0.1 to 0.5 µM | 1 to 10 µM | 1 to 10 µM | 1 to 10 µM | 1 to 10 µM | – | – | – | – |
| CNC(=O)c1cc(-c2cc(-c3cc(NC(=O)c4cc(C(F)(F)F)cnn4)ccc3C)cc(N)n2)ccn1 [Example 48] | < 0.1 µM | < 0.1 µM | 0.5 to 1 µM | 0.1 to 0.5 µM | 1 to 10 µM | 0.1 to 0.5 µM | – | – | – | – |
| CNC(=O)c1cc(-c2cc(-c3cc(NC(=O)c4cc(C(F)(F)F)cnn4)ccc3C)cc(NC)n2)ccn1 [Example 47] | < 0.1 µM | < 0.1 µM | < 0.1 µM | < 0.1 µM | < 0.1 µM | < 0.1 µM | – | – | – | – |
| CNC(=O)c1cc(-c2cncc(-c3cc(NC(=O)c4ccc(C(F)(F)F)nc4)ccc3C)c2)ncn1 [Example 10] | 0.1 to 0.5 µM | 0.1 to 0.5 µM | 1 to 10 µM | – | – | – | – | – | – | – |
| CNC(=O)c1cc(-c2cc(-c3cc(NC(=O)c4cc(C(F)(F)F)cnn4)ccc3C)cc(N[C@H](C)CO)n2)ccn1 [Example 29] | < 0.1 µM | < 0.1 µM | 0.1 to 0.5 µM | 0.1 to 0.5 µM | 0.1 to 0.5 µM | < 0.1 µM | – | – | – | – |
| Cc1ccc(NC(=O)c2cc(C(F)(F)F)cnn2)cc1-c1ccnc(-c2ccnc(C(N)=O)c2)c1 [Example 3, 4-(2-methyl-5-(5-(trifluoromethyl)pyridazine-3-carboxamido)phenyl)-[2,4′-bipyridine]-2′-carboxamide] | < 0.1 µM | < 0.1 µM | < 0.1 µM | 0.1 to 0.5 µM | < 0.1 µM | < 0.1 µM | – | – | – | – |
| CNC(=O)c1cc(-c2cc(-c3cc(NC(=O)c4cnc(C(F)(F)F)nc4)ccc3C)ccn2)ccn1 [Example 41] | 1 to 10 µM | 1 to 10 µM | 0.5 to 1 µM | 0.1 to 0.5 µM | 0.1 to 0.5 µM | 0.1 to 0.5 µM | – | – | – | – |
| CNC(=O)c1cc(-c2cc(NCCO)nc(-c3cc(NC(=O)c4cc(C(F)(F)F)cnn4)ccc3C)n2)ccn1 [Example 33] | < 0.1 µM | 0.1 to 0.5 µM | 1 to 10 µM | 1 to 10 µM | 1 to 10 µM | 1 to 10 µM | – | – | – | – |
| CNC(=O)c1cc(-c2cc(-c3cc(NC(=O)c4cncc(C(F)(F)F)c4)ccc3C)cc(C)n2)ccn1 [Example 13] | < 0.1 µM | 0.1 to 0.5 µM | 1 to 10 µM | 1 to 10 µM | 1 to 10 µM | 1 to 10 µM | – | – | – | – |
| CCc1ccc(NC(=O)c2cc(C(F)(F)F)cnn2)cc1-c1ccnc(-c2ccnc(C(=O)NC)c2)c1 [Example 37] | 1 to 10 µM | 1 to 10 µM | 1 to 10 µM | 1 to 10 µM | 1 to 10 µM | 1 to 10 µM | – | – | – | – |
| CNC(=O)c1cc(-c2cc(-c3cc(NC(=O)c4cncc(C(C)(F)F)c4)ccc3C)ccn2)ccn1 [Example 14] | < 0.1 µM | < 0.1 µM | 1 to 10 µM | 1 to 10 µM | – | 0.5 to 1 µM | – | – | – | – |
| CNC(=O)c1cc(-c2cc(-c3cc(NC(=O)c4cc(C(N)=O)cnn4)ccc3C)cc(OCCO)n2)ccn1 [Example 52, N^3-(3-(6-(2-hydroxyethoxy)-2′-(methylcarbamoyl)-[2,4′-bipyridin]-4-yl)-4-methylphenyl)pyridazine-3,5-dicarboxamide] | < 0.1 µM | 0.1 to 0.5 µM | 1 to 10 µM | 1 to 10 µM | – | 1 to 10 µM | – | – | – | – |
| CNC(=O)c1cc(-c2cc(-c3cc(NC(=O)c4cc(C#N)cnn4)ccc3C)cc(NCCO)n2)ccn1 [Example 53] | < 0.1 µM | < 0.1 µM | 0.1 to 0.5 µM | 0.1 to 0.5 µM | – | 0.1 to 0.5 µM | – | – | – | – |
| CNC(=O)c1cc(-c2cc(N)cc(-c3cc(NC(=O)c4cc(C(F)(F)F)cnn4)ccc3C)c2)ccn1 [Example 51] | < 0.1 µM | 0.1 to 0.5 µM | 0.5 to 1 µM | 1 to 10 µM | – | 0.5 to 1 µM | – | – | – | – |
| CNC(=O)c1cc(-c2cc(-c3cc(NC(=O)c4cccc(C(C)(C)C#N)c4)ccc3C)cc(OCCO)n2)ccn1 [reference compound] | – | – | – | – | – | – | 0.5 to 1 µM | < 0.1 µM | < 0.1 µM | 0.1 to 0.5 µM |
| CNC(=O)c1cc(-c2cc(-c3cc(NC(=O)c4cncc(C(C)(F)F)c4)ccc3C)cc(C)n2)ccn1 [Example 15] | < 0.1 µM | 0.1 to 0.5 µM | 1 to 10 µM | – | – | – | – | – | – | – |
| CNC(=O)c1cc(-c2cc(-c3cc(NC(=O)c4cc(C#N)cnn4)ccc3C)cc(N[C@H](C)CO)n2)ccn1 [Example 50] | < 0.1 µM | < 0.1 µM | 0.1 to 0.5 µM | 0.5 to 1 µM | – | 0.1 to 0.5 µM | – | – | – | – |
| Cc1ccc(NC(=O)c2ccc(C(F)(F)F)nc2)cc1-c1ccnc(-c2ccnc(C(=O)NC3CC3)c2)c1 [Example 5] | 0.1 to 0.5 µM | 1 to 10 µM | 0.5 to 1 µM | – | – | 0.1 to 0.5 µM | – | – | – | – |
